Values joined by “and” are separate entries in the source; they are usually repeats but may differ in a detail not shown here. Equal entries are not always repeated. Where two headings read alike, the source gives them in different places.
Experiments:
[1] = parameters: method as in earlier work; settings: cited from earlier work
[2] = orally administered; cited from earlier work
EphA4 = system: EphA4; parameters: method as in PMID 24958880; settings: cited from earlier work
HT22 cell = settings: cited from earlier work
APP/PS1 transgenic mice = system: APP/PS1 transgenic mice; parameters: method as in PMID 24958880; settings: oral 50 mg/kg/day for 3-4 weeks; cited from earlier work
[3] = Kinetic profiles of administered and generated stereoisomers in brain, CSF and plasma of rats after oral administration; assay type: in vivo, male Sprague-Dawley (SD) rats; settings: for Cmax, brain / AUC0-180 min, brain: rat brain; for AUC(0-t) / Cmax / half-life / Kp / Tmax: male, Sprague-Dawley, po; for half-life: read-out: t 1/2, plasma; for Kp / Tmax: rat; for Tmax: plasma
Text: Male Sprague-Dawley (SD) rats were provided by the Laboratory Animal Service Center of The Chinese University of Hong Kong, Hong Kong, China. Animals were housed in cages during the study period under standard conditions of temperature, humidity, and light. All animal experiments were approved by the Animal Ethics Committee of The Chinese University of Hong Kong.
One day before the experiment, the male SD rats (160-200 g) were fasted overnight with free access to water. […] The dosage was the same as used in the previous pharmacodynamics studies. […] The rats were exsanguinated by cardiac puncture under anesthesia, followed by collecting their CSF (about 100 μL) through a single puncture in the cisterna magna. Plasma was obtained by centrifugation of blood at 6,000 × g for 8 min at 4°C. After blood collection, the animals were perfused transcardially with normal saline until total blood volume was removed. Then, the whole brain was promptly collected, and the surface water was blotted dry with Kimwipes (Kimberly-Clark™). Blood vessels and meninges were carefully removed with forceps and the brain was weighted. All samples were stored at −20°C until analysis.
Brain homogenate was freshly prepared by homogenizing brain tissues in normal saline (1:2, w/v). Homogenization was conducted in an ice bath using the IKA T10 basic ULTRA-TURRAX Homogenizer for 20–30 s.
The biological samples including brain homogenate, CSF, and plasma (50 μL each) were deproteinized by adding 150 μL of acetonitrile (containing 20 ng/mL IS). After vortex mixing for 1 min, the mixture was centrifuged (20,000 × g) for 10 min at 4°C. After centrifugation, an aliquot (5 μL) of supernatant was subjected to the LC-MS/MS analysis.
The chromatographic separation was achieved on ZORBAX Eclipse Plus C18 column (2.1 × 100 mm, 1.8 μm, Agilent) maintained at 40°C temperature at a flow rate of 0.3 mL/min. A gradient mobile phase consisting of 0.1% formic acid in acetonitrile (A) and 0.1% formic acid in water (B) was eluted as follows: 0–1 min, A, 15–20%; 1–5 min, A, 20–25%; 5–7 min, A, 25–95%; 7–10 min, A held at 95% and returned to the initial condition (acetonitrile-water ratio 15 : 85) for a 3 min equilibration. The temperature of the auto-sampler was kept at 4°C.
All the data were processed using Agilent MassHunter Workstation Software Quantitative Analysis Version B.07.00/Build 7.0.457.0 (Agilent).
Kinetic parameters were calculated using the WinNonlin software (Version 4.0, Pharsight Corp, Mountain View, CA, US) employing a noncompartmental model approach. Epimerization ratio was calculated by AUC(generated stereoisomer)/(AUC(generated stereoisomer) + AUC(administered stereoisomer)) × 100%. The brain-to-plasma partition coefficient (Kp, Brain) was calculated by AUCBrain/AUCPlasma, and the CSF-to-plasma partition coefficient (Kp, CSF) was calculated by AUCCSF/AUCPlasma.
All the data in the study were expressed as mean ± SEM. Statistical analyses were performed using GraphPad Prism 6.0 (GraphPad Software Inc, San Diego, CA, US) using two tailed unpaired t-test for two groups comparison. Statistical significance was set at p value less than 0.05.

P-gp efflux transporter = settings: cited from earlier work
[4] = mainly mediated by CYP3A4; cited from earlier work
[5] = system: rats with Aβ25-35-induced cognitive deficits; settings: oral 20 or 40 mg/kg for 3 weeks; cited from earlier work
[6] = administered stereoisomer, 20 mg/kg p.o., rat CSF
[7] = administered stereoisomer, 20 mg/kg p.o.
[8] = generated stereoisomer after 20 mg/kg p.o. of the other stereoisomer
[9] = administered stereoisomer, 20 mg/kg p.o. of the same compound, rat plasma, mean ± SEM, read-out: AUC0-180 min, plasma (converted)
[10] = administered stereoisomer, 20 mg/kg p.o., rat CSF, read-out: AUC0-180 min, CSF (converted)
[11] = administered stereoisomer, 20 mg/kg p.o., rat plasma
[12] = CSF (relative to plasma), administered stereoisomer, 20 mg/kg p.o., AUCCSF/AUCPlasma, read-out: Kp,CSF (CSF-to-plasma partition coefficient)
[13] = brain (relative to plasma), administered stereoisomer, 20 mg/kg p.o., AUCBrain/AUCPlasma, read-out: Kp,Brain (brain-to-plasma partition coefficient)
[14] = 20 mg/kg, administered stereoisomer, 20 mg/kg p.o., rat plasma

CC[C@H]1CN2CC[C@]3(C(=O)Nc4ccccc43)[C@@H]2C[C@@H]1/C(=C\OC)C(=O)OC [RN, rhynchophylline]
pKa [1]: 6.32
Bioavailability [2]: 25.9 ± 8.7%
Inhibition of EphA4 (EphA4): potent inhibitor
Neuroprotective activity against glutamate-induced HT22 cell injury (HT22 cell): weak effect
Long-term potentiation in the hippocampus (APP/PS1 transgenic mice): restored the impaired long-term potentiation
Cmax, CSF [3, 6]: 7.39 ± 0.17^∗∗∗ ng/mL
Cmax, brain [3, 7]: 16.96 ± 1.92^∗∗ ng/g
AUC0-180 min, brain ([3]; administered stereoisomer, 20 mg/kg p.o., 20 mg/kg): 1587.03 ± 127.82 ng·min/g and 1587.03 ± 127.82^∗∗ ng·min/g
AUC0-180 min, brain [3, 8]: 296.63 ± 9.49^∗∗ ng·min/g
AUC(0-t) [3, 9]: 273 ng·h/mL
AUC(0-t) [3, 10]: 12.4 ng·h/mL
Cmax [3, 11]: 191 ± 6.34 ng/mL
half-life [3, 11]: 2.16 ± 0.155 h
Kp [3, 12]: 0.0453 ± 0.0002
Kp [3, 13]: 0.0967 ± 0.0063
Tmax [3, 14]: ≤ 0.5 h
Membrane permeability, effect of P-gp efflux (P-gp efflux transporter): affected by P-gp efflux transporter

CC[C@H]1CN2CC[C@@]3(C(=O)Nc4ccccc43)[C@@H]2C[C@@H]1/C(=C\OC)C(=O)OC [IRN, Isorhynchophylline]
pKa [1]: 5.20
Bioavailability [2]: 3.3 ± 0.8%
Inhibition of EphA4 (EphA4): not
Neuroprotective activity against glutamate-induced HT22 cell injury (HT22 cell): significant neuroprotective activity
Metabolism in rat liver microsomes [4]: much more favorable to be metabolized than RN
Cognitive deficits induced by Aβ25-35 [5]: ameliorated cognitive deficits
Cmax, CSF [3, 6]: 2.14 ± 0.34 ng/mL
AUC0-180 min, brain [3, 7]: 627.37 ± 43.31 ng·min/g
Cmax, brain [3, 7]: 7.35 ± 0.74 ng/g
Administered IRN metabolically converted to RN ([3]; after oral administration of IRN 20 mg/kg, rats): at least 47%
AUC0-180 min, brain [3, 8]: 140.76 ± 1.50 ng·min/g
AUC(0-t) [3, 9]: 41.4 ng·h/mL
AUC(0-t) [3, 10]: 3.4 ng·h/mL
Cmax [3, 11]: 31.3 ± 1.59 ng/mL
half-life [3, 11]: 1.07 ± 0.0532 h
Kp [3, 12]: 0.0821 ± 0.005
Kp [3, 13]: 0.253 ± 0.0187
Tmax [3, 14]: ≤ 0.5 h
